The values that follow come from patent US6987122B2, “2-(1H-indol-3-yl)-2-oxo-acetic acid amides with antitumor activity” (Novuspharma S.p.A., priority 2000, dated 2006).

The structures appear in SMILES notation.

One may read the melting point as the temperature of the solid-liquid transition. With `O=C(Nc1nccs1)C(=O)c1cn(Cc2ccc(F)cc2)c2ccccc12`, the melting point was in the range of 233 to 237 °C. To `O=C(Nc1nncs1)C(=O)c1cn(Cc2ccc(F)cc2)c2ccccc12` belongs 218 to 220 °C.
